Numbers after ± are expanded uncertainties.
Assay: xn = mol fraction of the nth substance listed
Conditions: 100 kPa, Liquid; for speed of sound: Frequency=3 MHz, Sing-around technique in a fixed-path interferometer; for mass density: Vibrating tube method

Structure (SMILES): O=C1CCCN1 [2-pyrrolidinone] + CCCCn1cc[n+](C)c1.F[B-](F)(F)F
- speed of sound (298.15 K, x2 = 0): 1634.4 ± 1.4 m/s
- speed of sound (298.15 K, x2 = 0.102): 1625.5 ± 1.6 m/s
- speed of sound (298.15 K, x2 = 0.1951): 1618 ± 1.6 m/s
- speed of sound (298.15 K, x2 = 0.3046): 1608.3 ± 1.7 m/s
- speed of sound (298.15 K, x2 = 0.3886): 1601 ± 1.6 m/s
- speed of sound (298.15 K, x2 = 0.5262): 1590.7 ± 1.6 m/s
- speed of sound (298.15 K, x2 = 0.6185): 1584.4 ± 1.6 m/s
- speed of sound (298.15 K, x2 = 0.69): 1579.5 ± 1.6 m/s
- speed of sound (298.15 K, x2 = 0.7844): 1574.3 ± 1.6 m/s
- speed of sound (298.15 K, x2 = 0.8861): 1569.2 ± 1.6 m/s
- mass density (298.15 K, x2 = 0): 1107.16 ± 1 kg/m3
- mass density (298.15 K, x2 = 0.102): 1128.93 ± 1.5 kg/m3
- mass density (298.15 K, x2 = 0.1951): 1143.99 ± 1.5 kg/m3
- mass density (298.15 K, x2 = 0.3046): 1155.01 ± 1.5 kg/m3
- mass density (298.15 K, x2 = 0.3886): 1163.44 ± 1.6 kg/m3
- mass density (298.15 K, x2 = 0.5262): 1173.25 ± 1.6 kg/m3
- mass density (298.15 K, x2 = 0.6185): 1179.38 ± 1.6 kg/m3
- mass density (298.15 K, x2 = 0.69): 1183.57 ± 1.6 kg/m3
- mass density (298.15 K, x2 = 0.7844): 1188.69 ± 1.6 kg/m3
- mass density (298.15 K, x2 = 0.8861): 1193.47 ± 1.6 kg/m3
- speed of sound (303.15 K, x2 = 0): 1618 ± 1.4 m/s
- speed of sound (303.15 K, x2 = 0.102): 1610.2 ± 1.6 m/s
- speed of sound (303.15 K, x2 = 0.1951): 1604.1 ± 1.6 m/s
- speed of sound (303.15 K, x2 = 0.3046): 1594.5 ± 1.7 m/s
- speed of sound (303.15 K, x2 = 0.3886): 1587.5 ± 1.6 m/s
- speed of sound (303.15 K, x2 = 0.5262): 1578.1 ± 1.6 m/s
- speed of sound (303.15 K, x2 = 0.6185): 1572.5 ± 1.6 m/s
- speed of sound (303.15 K, x2 = 0.69): 1567.2 ± 1.6 m/s
- speed of sound (303.15 K, x2 = 0.7844): 1562.2 ± 1.6 m/s
- speed of sound (303.15 K, x2 = 0.8861): 1557.3 ± 1.6 m/s
- mass density (303.15 K, x2 = 0): 1103.07 ± 1 kg/m3
- mass density (303.15 K, x2 = 0.102): 1124.98 ± 1.5 kg/m3
- mass density (303.15 K, x2 = 0.1951): 1139 ± 1.5 kg/m3
- mass density (303.15 K, x2 = 0.3046): 1151.24 ± 1.5 kg/m3
- mass density (303.15 K, x2 = 0.3886): 1159.65 ± 1.6 kg/m3
- mass density (303.15 K, x2 = 0.5262): 1169.51 ± 1.6 kg/m3
- mass density (303.15 K, x2 = 0.6185): 1175.68 ± 1.6 kg/m3
- mass density (303.15 K, x2 = 0.69): 1179.91 ± 1.6 kg/m3
- mass density (303.15 K, x2 = 0.7844): 1185.05 ± 1.6 kg/m3
- mass density (303.15 K, x2 = 0.8861): 1189.85 ± 1.6 kg/m3
- speed of sound (308.15 K, x2 = 0): 1601.6 ± 1.4 m/s
- speed of sound (308.15 K, x2 = 0.102): 1595.5 ± 1.5 m/s
- speed of sound (308.15 K, x2 = 0.1951): 1589.2 ± 1.6 m/s
- speed of sound (308.15 K, x2 = 0.3046): 1580.2 ± 1.6 m/s
- speed of sound (308.15 K, x2 = 0.3886): 1573.8 ± 1.6 m/s
- speed of sound (308.15 K, x2 = 0.5262): 1565.4 ± 1.6 m/s
- speed of sound (308.15 K, x2 = 0.6185): 1560.1 ± 1.6 m/s
- speed of sound (308.15 K, x2 = 0.69): 1554.7 ± 1.6 m/s
- speed of sound (308.15 K, x2 = 0.7844): 1550 ± 1.6 m/s
- speed of sound (308.15 K, x2 = 0.8861): 1545.4 ± 1.6 m/s
- mass density (308.15 K, x2 = 0): 1098.99 ± 1 kg/m3
- mass density (308.15 K, x2 = 0.102): 1121.03 ± 1.5 kg/m3
- mass density (308.15 K, x2 = 0.1951): 1135.12 ± 1.5 kg/m3
- mass density (308.15 K, x2 = 0.3046): 1147.43 ± 1.5 kg/m3
- mass density (308.15 K, x2 = 0.3886): 1155.87 ± 1.5 kg/m3
- mass density (308.15 K, x2 = 0.5262): 1165.8 ± 1.6 kg/m3
- mass density (308.15 K, x2 = 0.6185): 1172.01 ± 1.6 kg/m3
- mass density (308.15 K, x2 = 0.69): 1176.26 ± 1.6 kg/m3
- mass density (308.15 K, x2 = 0.7844): 1181.42 ± 1.6 kg/m3
- mass density (308.15 K, x2 = 0.8861): 1186.26 ± 1.6 kg/m3
- speed of sound (313.15 K, x2 = 0): 1585.4 ± 1.4 m/s
- speed of sound (313.15 K, x2 = 0.102): 1580.5 ± 1.5 m/s
- speed of sound (313.15 K, x2 = 0.1951): 1575 ± 1.6 m/s
- speed of sound (313.15 K, x2 = 0.3046): 1566.5 ± 1.6 m/s
- speed of sound (313.15 K, x2 = 0.3886): 1560.7 ± 1.6 m/s
- speed of sound (313.15 K, x2 = 0.5262): 1552.7 ± 1.6 m/s
- speed of sound (313.15 K, x2 = 0.6185): 1547.9 ± 1.6 m/s
- speed of sound (313.15 K, x2 = 0.69): 1542.5 ± 1.6 m/s
- speed of sound (313.15 K, x2 = 0.7844): 1537.9 ± 1.6 m/s
- speed of sound (313.15 K, x2 = 0.8861): 1533.5 ± 1.6 m/s
- mass density (313.15 K, x2 = 0): 1094.9 ± 1 kg/m3
- mass density (313.15 K, x2 = 0.102): 1117.09 ± 1.5 kg/m3
- mass density (313.15 K, x2 = 0.1951): 1131.25 ± 1.5 kg/m3
- mass density (313.15 K, x2 = 0.3046): 1143.62 ± 1.5 kg/m3
- mass density (313.15 K, x2 = 0.3886): 1152.11 ± 1.5 kg/m3
- mass density (313.15 K, x2 = 0.5262): 1162.12 ± 1.6 kg/m3
- mass density (313.15 K, x2 = 0.6185): 1168.35 ± 1.6 kg/m3
- mass density (313.15 K, x2 = 0.69): 1172.63 ± 1.6 kg/m3
- mass density (313.15 K, x2 = 0.7844): 1177.81 ± 1.6 kg/m3
- mass density (313.15 K, x2 = 0.8861): 1182.68 ± 1.6 kg/m3
- speed of sound (318.15 K, x2 = 0): 1570.4 ± 1.4 m/s
- speed of sound (318.15 K, x2 = 0.102): 1566 ± 1.5 m/s
- speed of sound (318.15 K, x2 = 0.1951): 1560.9 ± 1.5 m/s
- speed of sound (318.15 K, x2 = 0.3046): 1553.8 ± 1.6 m/s
- speed of sound (318.15 K, x2 = 0.3886): 1547.8 ± 1.5 m/s
- speed of sound (318.15 K, x2 = 0.5262): 1541.2 ± 1.6 m/s
- speed of sound (318.15 K, x2 = 0.6185): 1536.4 ± 1.6 m/s
- speed of sound (318.15 K, x2 = 0.69): 1530.7 ± 1.6 m/s
- speed of sound (318.15 K, x2 = 0.7844): 1526.2 ± 1.6 m/s
- speed of sound (318.15 K, x2 = 0.8861): 1521.9 ± 1.6 m/s

From the NIST ThermoML archive (doi:10.1016/j.jct.2015.11.009)
